Biological target: T1, Human macrophage mannose receptor 1 (MRC1) (Homo sapiens, UniProt P22897)
T1 sequence (P22897 19-1456): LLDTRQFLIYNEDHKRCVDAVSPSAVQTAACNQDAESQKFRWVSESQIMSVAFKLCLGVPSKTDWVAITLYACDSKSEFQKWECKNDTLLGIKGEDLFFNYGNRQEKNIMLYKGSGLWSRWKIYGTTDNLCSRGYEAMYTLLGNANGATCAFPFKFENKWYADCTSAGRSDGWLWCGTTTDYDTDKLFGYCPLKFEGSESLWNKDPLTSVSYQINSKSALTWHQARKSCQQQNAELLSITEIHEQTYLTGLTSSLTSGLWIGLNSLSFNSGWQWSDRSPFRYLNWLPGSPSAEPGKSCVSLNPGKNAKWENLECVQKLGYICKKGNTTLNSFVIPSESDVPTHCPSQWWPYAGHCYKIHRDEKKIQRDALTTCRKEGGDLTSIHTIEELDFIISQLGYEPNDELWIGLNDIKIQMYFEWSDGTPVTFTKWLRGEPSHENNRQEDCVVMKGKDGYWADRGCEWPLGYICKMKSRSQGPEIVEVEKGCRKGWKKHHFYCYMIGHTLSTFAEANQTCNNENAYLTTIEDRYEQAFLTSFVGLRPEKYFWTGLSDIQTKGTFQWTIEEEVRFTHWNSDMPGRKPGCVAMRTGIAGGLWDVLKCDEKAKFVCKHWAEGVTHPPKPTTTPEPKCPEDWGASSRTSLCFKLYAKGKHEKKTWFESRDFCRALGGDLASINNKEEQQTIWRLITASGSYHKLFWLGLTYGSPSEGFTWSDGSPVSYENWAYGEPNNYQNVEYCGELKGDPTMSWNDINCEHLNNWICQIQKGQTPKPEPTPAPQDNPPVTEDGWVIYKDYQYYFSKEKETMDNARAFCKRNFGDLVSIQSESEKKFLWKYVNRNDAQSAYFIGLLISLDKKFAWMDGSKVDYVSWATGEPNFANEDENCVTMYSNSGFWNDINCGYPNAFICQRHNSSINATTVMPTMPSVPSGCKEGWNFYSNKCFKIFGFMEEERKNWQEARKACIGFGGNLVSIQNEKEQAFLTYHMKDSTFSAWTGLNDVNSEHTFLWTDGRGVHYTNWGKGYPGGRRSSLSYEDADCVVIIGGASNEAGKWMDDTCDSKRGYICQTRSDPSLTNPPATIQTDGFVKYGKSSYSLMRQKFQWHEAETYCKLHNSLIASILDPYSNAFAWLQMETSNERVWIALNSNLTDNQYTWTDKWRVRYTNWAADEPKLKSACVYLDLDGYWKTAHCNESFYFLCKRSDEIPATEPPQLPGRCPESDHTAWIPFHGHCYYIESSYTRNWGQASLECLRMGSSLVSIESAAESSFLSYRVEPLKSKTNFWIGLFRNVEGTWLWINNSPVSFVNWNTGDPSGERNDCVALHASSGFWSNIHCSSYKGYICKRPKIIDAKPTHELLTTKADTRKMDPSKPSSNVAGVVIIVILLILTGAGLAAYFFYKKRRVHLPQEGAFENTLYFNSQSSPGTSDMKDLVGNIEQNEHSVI
Assay: MRC1 competition binding assay (Eu-mannosylated-BSA), Method F: 96-well, manual liquid dispense
Settings: read-out: MRC1 Binding IP (inflection point, corresponds to IC50)
Protocol: The competition binding assay for MRC1 utilized a ligand, mannosylated-BSA labeled with the DELFIA Eu-N1-ITC reagent, as reported in the literature. […] The antibody was incubated in the plate for 1 hr at room temperature with shaking. The plate was washed with wash buffer 3-5 times followed by addition of MRC1 (2 ng/μl final concentration) in 25 μl PBS containing 1% stabilizer BSA. The plate was incubated at room temperature with gentle shaking for 1 hr. The plate was washed three times with wash buffer. […]
Their in vitro biological activities towards insulin receptor (IR) were measured by either ligand competition assays or functional phosphorylation assays, as described above, labeled as following: Method A: IR phosphorylation assay based on 96-well with manual liquid dispense; Method B: IR phosphorylation assay based on 96-well with automated liquid dispense; Method C: IR phosphorylation assay based on 384-well with automated liquid dispense; Method D: IR binding assay method D; Method E: IR binding assay method E; Method F: MRC1 assay was performed in a 96-well plate with a manual liquid dispense; Method G: MRC1 assay was performed in a 96-well plate with an automated liquid dispense; Method H: MRC1 assay was performed in a 384-well plate with an automated dispense.

Structure (SMILES) | IC50 [µM]
CC[C@H](C)[C@H](NC(=O)CN)C(=O)N[C@H](C(=O)N[C@@H](CCC(=O)O)C(=O)N[C@@H](CCC(N)=O)C(=O)N[C@H]1CSSC[C@@H]2NC(=O)[C@H]([C@@H](C)CC)NC(=O)[C@H](CO)NC(=O)[C@H]([C@@H](C)O)NC(=O)[C@H](CSSC[C@H](NC(=O)[C@H](CC(C)C)NC(=O)[C@H](Cc3c[nH]cn3)NC(=O)[C@H](CCC(N)=O)NC(=O)[C@H](CC(N)=O)NC(=O)[C@@H](NC(=O)[C@@H](N)Cc3ccccc3)C(C)C)C(=O)NCC(=O)N[C@@H](CO)C(=O)N[C@@H](Cc3c[nH]cn3)C(=O)N[C@@H](CC(C)C)C(=O)N[C@@H](C(C)C)C(=O)N[C@@H](CCC(=O)O)C(=O)N[C@@H](C)C(=O)N[C@@H](CC(C)C)C(=O)N[C@@H](Cc3ccc(O)cc3)C(=O)N[C@@H](CC(C)C)C(=O)N[C@@H](C(C)C)C(=O)N[C@H](C(=O)NCC(=O)N[C@@H](CCC(=O)O)C(=O)N[C@@H](CCCNC(=N)N)C(=O)NCC(=O)N[C@@H](Cc3ccccc3)C(=O)N[C@@H](Cc3ccccc3)C(=O)N[C@@H](Cc3ccc(O)cc3)C(=O)N[C@H](C(=O)N3CCC[C@H]3C(=O)N[C@@H](CCCCNC(=O)CCCCC(=O)N(CC(=O)NCCO[C@@H]3O[C@@H](C)[C@@H](O)[C@@H](O)[C@@H]3O)CC(=O)NCCO[C@@H]3O[C@@H](C)[C@@H](O)[C@@H](O)[C@@H]3O)C(=O)N[C@H](C(=O)O)[C@@H](C)O)[C@@H](C)O)CSSC[C@@H](C(=O)N[C@@H](CC(N)=O)C(=O)O)NC(=O)[C@H](Cc3ccc(O)cc3)NC(=O)[C@H](CC(N)=O)NC(=O)[C@H](CCC(=O)O)NC(=O)[C@H](CC(C)C)NC(=O)[C@H](CCC(N)=O)NC(=O)[C@H](Cc3ccc(O)cc3)NC(=O)[C@H](CC(C)C)NC(=O)[C@H](CO)NC2=O)NC1=O)C(C)C [IOC-12] | 0.0925
CC[C@H](C)[C@H](NC(=O)CNC(=O)CCCCC(=O)N(CC(=O)NCCO[C@@H]1O[C@@H](C)[C@@H](O)[C@@H](O)[C@@H]1O)CC(=O)NCCO[C@@H]1O[C@@H](C)[C@@H](O)[C@@H](O)[C@@H]1O)C(=O)N[C@H](C(=O)N[C@@H](CCC(=O)O)C(=O)N[C@@H](CCC(N)=O)C(=O)N[C@H]1CSSC[C@@H]2NC(=O)[C@H]([C@@H](C)CC)NC(=O)[C@H](CO)NC(=O)[C@H]([C@@H](C)O)NC(=O)[C@H](CSSC[C@H](NC(=O)[C@H](CC(C)C)NC(=O)[C@H](Cc3c[nH]cn3)NC(=O)[C@H](CCC(N)=O)NC(=O)[C@H](CC(N)=O)NC(=O)[C@@H](NC(=O)[C@@H](N)Cc3ccccc3)C(C)C)C(=O)NCC(=O)N[C@@H](CO)C(=O)N[C@@H](Cc3c[nH]cn3)C(=O)N[C@@H](CC(C)C)C(=O)N[C@@H](C(C)C)C(=O)N[C@@H](CCC(=O)O)C(=O)N[C@@H](C)C(=O)N[C@@H](CC(C)C)C(=O)N[C@@H](Cc3ccc(O)cc3)C(=O)N[C@@H](CC(C)C)C(=O)N[C@@H](C(C)C)C(=O)N[C@H](C(=O)NCC(=O)N[C@@H](CCC(=O)O)C(=O)N[C@@H](CCCNC(=N)N)C(=O)NCC(=O)N[C@@H](Cc3ccccc3)C(=O)N[C@@H](Cc3ccccc3)C(=O)N[C@@H](Cc3ccc(O)cc3)C(=O)N[C@H](C(=O)N3CCC[C@H]3C(=O)N[C@@H](CCCCN)C(=O)N[C@H](C(=O)O)[C@@H](C)O)[C@@H](C)O)CSSC[C@@H](C(=O)N[C@@H](CC(N)=O)C(=O)O)NC(=O)[C@H](Cc3ccc(O)cc3)NC(=O)[C@H](CC(N)=O)NC(=O)[C@H](CCC(=O)O)NC(=O)[C@H](CC(C)C)NC(=O)[C@H](CCC(N)=O)NC(=O)[C@H](Cc3ccc(O)cc3)NC(=O)[C@H](CC(C)C)NC(=O)[C@H](CO)NC2=O)NC1=O)C(C)C [IOC-13] | 0.107
